Data: patent publication US20110171666A1, “PEPTIDE-LIPID CONSTRUCTS AND THEIR USE IN DIAGNOSTIC AND THERAPEUTIC APPLICATIONS” (priority 2007, published 2011)
Groups on a side chain read outwards from the residue. Primed or numbered codes have the meaning given here. No end group written: not given here. *: point of attachment. DOPE = CCCCCCCC/C=C\CCCCCCCC(=O)OC[C@H](COP(=O)(O)OCCN*)OC(=O)CCCCCCC/C=C\CCCCCCCC; S1 PEG = not defined here; PEG6′ = not defined here; Mal = not defined here; Mal″ = maleimide; βAla = NCCC(=O)O

How the values were obtained:
[1] = test system: Miltenberger Antibody Positive Panel (polyclonal sera and monoclonal antibodies); experiment: Reactivity of construct-modified RBCs against the Miltenberger Antibody Positive Panel; assay type: cell-based, human; parameters: key: 0 or ‘−’=no agglutination; 0 or ‘−’=no agglutination; 1+ or 3=very weak agglutination; 1+ or 3=very weak agglutination; 2+ or 5=weak agglutination; 2+ or 5=weak agglutination; 3+ or 8=moderate strong agglutination; 3+ or 8=moderate strong agglutination; 4+ or 10/12=strong agglutination; 4+ or 10/12=strong agglutination; 4+ or 10/12=strong agglutination
Description: Red blood cells are modified by mixing 1 part by volume of washed packed red blood cells with 1 part by volume of peptide-lipid construct dispersed at a concentration of 10 to 1000 μg/ml in cell media (Celpresol™).
(§1) The suspensions are either: • 1. incubated for 2 hours at 37° C. before being washed and suspended in a cell medium for serological analysis at a concentration of 0.8 to 3% (Method 1); or • 2. incubated for 3 to 4 hours at room temperature (circa 25° C.) followed by 18 hours at 4° C. before being washed and suspended in a cell medium for serological analysis at a concentration of 0.8 to 3% (Method 2).
(§2) Serological reactions are graded or scored by either of two established systems (0 or ‘−’=no agglutination, 1+ or 3=very weak agglutination, 2+ or 5=weak agglutination, 3+ or 8=moderate strong agglutination, 4+ or 10/12=strong agglutination)
(§3) Serological platforms used are Tube (addition of reagents and reactants into plastic or glass serology tubes and after appropriate incubations, washing and centrifugation observing reactions macroscopically by eye and a 10× magnification eyepiece and scoring) and BioVue™ (addition of reactants into cassettes containing beads (including some reactants) and after appropriate incubations and centrifugation observing the reaction patterns traped within the Gel matrix). BioVue is the serological column agglutination platform of Ortho-Clinical Diagnostics.

[2] = test system: sera reactive with modified RBCs; experiment: Neutralisation of reactive sera with peptide and retest against modified RBCs (BioVue cards); assay type: cell-based, human; parameters: key: 0 or ‘−’=no agglutination; 0 or ‘−’=no agglutination; 1+ or 3=very weak agglutination; 1+ or 3=very weak agglutination; 2+ or 5=weak agglutination; 2+ or 5=weak agglutination; 3+ or 8=moderate strong agglutination; 3+ or 8=moderate strong agglutination; 4+ or 10/12=strong agglutination; 4+ or 10/12=strong agglutination; 4+ or 10/12=strong agglutination; details: for reactivity score, serum + peptide: RBCs modified at 500 μg/ml (Method 1)
Description: as §1, §2, §3
Where false positives were observed these could be substantially eliminated by pre-treatment of the sample of serum with the peptide of the peptide-lipid constructs (Table 10 and 11).

[3] = MUT constructs, μg/ml used: M1 500, M2 500, M3 1000, M13 250, M21 200
[4] = MUR constructs, RBCs modified at 100 ug/ml

Substance | reactivity score of modified RBCs vs 2 T217 [1, 3] | reactivity score of modified RBCs vs 3 T165 [1, 3] | reactivity score of modified RBCs vs 4 T7202 [1, 3] | reactivity score of modified RBCs vs 6 T6025 [1, 3] | reactivity score of modified RBCs vs 7 T8445 [1, 3] | reactivity score of modified RBCs vs 8 T5896 [1, 3] | reactivity score of modified RBCs vs 9 MIII monoclonal antibody [1, 3] | reactivity score of modified RBCs vs 10 Mia monoclonal antibody [1, 3] | reactivity score of modified RBCs vs 11 Mur monoclonal antibody [1, 3] | reactivity score of modified RBCs vs 12 Gam monoclonal antibody [1, 3] | reactivity score of modified RBCs vs 2 T217 [1, 4] | reactivity score of modified RBCs vs 3 T165 [1, 4] | reactivity score of modified RBCs vs 4 T7202 [1, 4] | reactivity score of modified RBCs vs 6 T6025 [1, 4] | reactivity score of modified RBCs vs 7 T8445 [1, 4] | reactivity score of modified RBCs vs 8 T5896 [1, 4] | reactivity score of modified RBCs vs 9 MIII monoclonal antibody [1, 4] | reactivity score of modified RBCs vs 10 Mia monoclonal antibody [1, 4] | reactivity score of modified RBCs vs 11 Mur monoclonal antibody [1, 4] | reactivity score of modified RBCs vs 12 Gam monoclonal antibody [1, 4] | also measured
DOPE-PEG6-βAla-Mal-21MUTK (SQTNDKHKRDC([Mal″-βAla-PEG6′-DOPE])) [M21] | 0 | 8 | 0 | 8 | 0 | 0 | 0 | 0 | 0 | 3 | – | – | – | – | – | – | – | – | – | – | reactivity score of modified RBCs vs 15 TAP2 [1, 3]: 5
DOPE-PEG6-βAla-Mal-13MUTK (SSQTNDKHKRDTYC([Mal-βAla-PEG6′-DOPE]); reading uncertain; also: printed as DOPE-PEG6-βAla-Mal-13MUTK) [M13] | 8 | 0 | 8 | 8 | 0 | 3 | 0 | 0 | 0 | 0 | – | – | – | – | – | – | – | – | – | – | reactivity score, serum alone ([2]; serum #3, RBCs modified at 500 μg/ml (Method 1)): 8; reactivity score, serum + peptide ([2]; serum #3 neutralised with peptide SSQTNDKHKRDTY): 0; reactivity score, serum alone ([2]; serum #34, RBCs modified at 500 μg/ml (Method 1)): 8; reactivity score, serum + peptide ([2]; serum #34 neutralised with peptide SSQTNDKHKRDTY): 0; reactivity score, serum alone ([2]; serum #37, RBCs modified at 500 μg/ml (Method 1)): 8; reactivity score, serum + peptide ([2]; serum #37 neutralised with peptide SSQTNDKHKRDTY): 0; reactivity score, serum alone ([2]; serum #42, RBCs modified at 500 μg/ml (Method 1)): 8; reactivity score, serum + peptide ([2]; serum #42 neutralised with peptide SSQTNDKHKRDTY): 0; reactivity score of modified RBCs vs 13 BoxH [1, 3]: 8
DOPE-PEG6-βAla-Mal-18Mur (PAHTANEVC([Mal″-βAla-PEG6′-DOPE])) [M18] | – | – | – | – | – | – | – | – | – | – | 0 | 10 | 0 | 10 | 8 | 0 | 0 | 0 | 0 | 0 | –
M16: DOPE peptide-lipid construct, Mur peptide ThrTyrProAlaHisThrAlaAsnGluVal with terminal Cys, S1 PEG (Table 7) (TYPAHTANEVC([S1 PEG-DOPE]); reading uncertain) | – | – | – | – | – | – | – | – | – | – | 0 | 10 | 5 | 5 | 12 | 0 | 0 | 0 | 0 | 0 | reactivity score of modified RBCs vs 13 BoxH [1, 4]: 0
